Laboratory results taken from patent publication US20030109705A1, “Novel cyanoenamines useful as ligands for modulating gene expression in plants or animals” (priority 2001, published 2003).
Values after ≈ are worked out from the molar mass of the structure shown.

Test system: Spodoptera littoralis
Test: Spodoptera littoralis larvicide, feeding/contact activity on sprayed cotton leaf discs
Assay type: in vivo
Settings: foliar, L1 larvae on sprayed cotton leaf discs, checked 2 and 6 days after treatment, read-out: Insecticidal activity (EC80 ppm) SPODLI
Description: Spodoptera littoralis (abbreviated as SPODLI) (commonly known as Egyptian cotton leafworm): larvicide, feeding/contact activity. Cotton leaf discs were placed on agar in petri dishes and individually sprayed with test solution of cyanoenamine in an application chamber. After drying, the leaf discs were infested with 20 to 25 L1 larvae. The samples were checked for mortality, repellent effect, feeding behavior, and growth regulation 2 and 6 days after treatment. Each of Spodopertera littoralis and Heliothis virescens is a larval form of an insect in the order Lepidoptera.

Structure (SMILES) | EC80 [µg/mL]
Cc1cc(C)cc(/C(C#N)=C(\NC(=O)c2cccc(Cl)c2C)C(C)(C)C)c1 [drawing 443] | 50 (≈ 131 µM)
Cc1cccc(/C(C#N)=C(\NC(=O)c2cccc(Br)c2C)C(C)(C)C)c1 [drawing 444] | 200 (≈ 486 µM)
Cc1cc(C)cc(/C(C#N)=C(\NC(=O)c2cccc(Br)c2C)C(C)(C)C)c1 [drawing 445] | > 50
CC(C)(C)/C(NC(=O)c1c(F)cccc1F)=C(\C#N)c1ccccc1 [drawing 446] | > 100
Cc1cc(C)cc(/C(C#N)=C(\NC(=O)c2cccc(C)c2C)C(C)(C)C)c1 [drawing 447] | 50 (≈ 139 µM)
COc1cccc(C(=O)N/C(=C(/C#N)c2cc(C)cc(C)c2)C(C)(C)C)c1C [drawing 448] | 100 (≈ 266 µM)
COc1cccc(C(=O)N/C(=C(/C#N)c2cccc(C)c2)C(C)(C)C)c1C [drawing 449] | 200 (≈ 552 µM)
CCc1ccc(C(=O)N/C(=C(/C#N)c2ccccc2)C(C)(C)C)cc1 [drawing 450] | > 100

Test system: Heliothis virescens
Test: Heliothis virescens ovo-larvicide, feeding/contact activity on eggs on artificial diet
Assay type: in vivo
Settings: 144 h, fresh eggs (0 to 24 hours old) on artificial diet, 6 days incubation, read-out: Insecticidal activity (EC80 ppm) Hv
Procedure: Heliothis virescens (abbreviated as Hv) (commonly known as tobacco budworm): ovo-larvicide, feeding/contact activity. 30 to 35 fresh eggs (0 to 24 hours old), deposited on filter paper, were placed in petri dishes on a layer of artificial diet and 0.8 mL of each test solution of cyanoenamine was individually pipetted onto them. After an incubation period of 6 days, samples were checked for egg mortality, larval mortality, and growth regulation.
Each of Spodopertera littoralis and Heliothis virescens is a larval form of an insect in the order Lepidoptera.

Structure (SMILES) | EC80 [µg/mL]
Cc1cc(C)cc(/C(C#N)=C(\NC(=O)c2cccc(Cl)c2C)C(C)(C)C)c1 [drawing 443] | 5 (≈ 13.1 µM)
Cc1cccc(/C(C#N)=C(\NC(=O)c2cccc(Br)c2C)C(C)(C)C)c1 [drawing 444] | 200 (≈ 486 µM)
Cc1cc(C)cc(/C(C#N)=C(\NC(=O)c2cccc(Br)c2C)C(C)(C)C)c1 [drawing 445] | > 50
CC(C)(C)/C(NC(=O)c1c(F)cccc1F)=C(\C#N)c1ccccc1 [drawing 446] | > 100
Cc1cc(C)cc(/C(C#N)=C(\NC(=O)c2cccc(C)c2C)C(C)(C)C)c1 [drawing 447] | 50 (≈ 139 µM)
COc1cccc(C(=O)N/C(=C(/C#N)c2cc(C)cc(C)c2)C(C)(C)C)c1C [drawing 448] | 100 (≈ 266 µM)
COc1cccc(C(=O)N/C(=C(/C#N)c2cccc(C)c2)C(C)(C)C)c1C [drawing 449] | 200 (≈ 552 µM)
CCc1ccc(C(=O)N/C(=C(/C#N)c2ccccc2)C(C)(C)C)cc1 [drawing 450] | > 100

Biological target: T1, truncated Manduca EcR-VP16 (Manduca sexta, UniProt P49883)
T1 construct: A truncated Manduca EcR containing domains C, D and E of the receptor was constructed as follows; engineered start Met (in-frame ATG) (N); expressed in transfected cells; host or cells: S2 Drosophila cells (ATCC CRL-1963), transiently transfected with plasmid MMV (pPacU backbone)
Test: Cell-based luciferase reporter assay of transcriptional activation by EcR receptor plasmid (MMV) in S2 Drosophila cells
Settings: ligand 2 μM, harvested 24 hours after addition, ratio relative to reporter construct without ligand
Description: A minimal promoter vector was made by ligating a synthetic TATA box sequence oligonucleotide pair, 5′-agcttgagggtataatg-3′ (SEQ ID NO: 1) and 3′-actcccatattactcga-5′ (SEQ ID NO:2), into the HindIII site of vector pGL3-basic (Promega) so that the HindIII site was recreated 5′ to the inserted oligonucleotide and destroyed between the oligonucleotide and the downstream luciferase gene. This vector was designated TATA5.
The binding site from the hsp27 gene (Koelle et al., Cell 67(1): 59-77 (1991)) was made with the oligonucleotide pair, 5′-[…]-3′ (SEQ ID NO:3) and 3′-[…]-5′ (SEQ ID NO:4). This site was multimerized and ligated into the BglII site of vector TATA-5. One isolate, pCGS154, contained the sequence below in the inserted region, having 2 pairs of sites in inverted orientations. […] The sequence of the inserted region in pCGS154 is shown below:
PCR primers were designed based on the published sequence for Manduca Sexta ecdysone receptor (EcR) (genbank accession number U19812 (SEQ ID Nos:6 and 7) to clone the gene in two halves. RNA was prepared from prepupae larva of Manduca sexta using the LiCl/phenol method (Current Protocols in Molecular Biology, Vol. 1, Unit 4.3, 1987, John Wiley and Sons, publishers) and 1 μg of total RNA was used to prepare cDNA using MMLV reverse transcriptase (Promega). The cDNA was used in a PCR reaction with the primers described above to generate two PCR products for the 5′ and 3′ halves of the gene. These were subcloned into the pGEM-TA vector (Promega) and sequenced. The two fragments were joined at a unique Ndel site within each fragment and ligated into pBS-KS (Stratagene) to create a full length Manduca sexta EcR clone named pBSFLMa. A HindIII site followed by an inframe stop codon and BamHI site was placed at the 3′ end of the E domain (ligand binding domain) of the Manduca EcR receptor using the oligonucleotide: 5′-[…]-3′ (SEQ ID NO:8).
A truncated Manduca EcR containing domains C, D and E of the receptor was constructed as follows. A BamHI site and in-frame ATG was engineered just 5′ to the C domain using the degenerate primers 5′-ggatccatgggycgagaagaattrtcaccr-3′ (SEQ ID NO:9) and 5′-ccacrtcccagatctcctcga-3′ (SEQ ID NO:10). This fragment was then joined using the Nde site to the 3′ end of Manduca EcR, which has an engineered HindIII site at the 3′ end as described above.
A fragment containing the herpes simplex VP16 transactivation domain was cloned from plasmid 35S/USP-VP16 (U.S. Pat. No. 5,880,333) using the PCR primers 5′-aagcttgcccccccgaccg-3′ (SEQ ID NO:11) (placing a HindIII site at the 5′ end of the domain) and 5′-[…]-3′ (SEQ ID NO:12) (placing an inframe stop codon followed by BamHI and Xbal sites at the 3′ end of the domain). The VP16 domain was fused in frame to the 3′ end of the E domain of the ecdysone receptor using the HindIII site 3′ to EcR clone and the HindIII site engineered at the 5′ end of VP16.
The plasmid pPacU (Courey A J and Tjian R (1988) Cell 55, 887-898) was used as the starting vector for expression constructs. The truncated Manduca EcR-VP16 was ligated into pPacU using the BamHI sites flanking the coding region to create the construct referred to as MMV.
An in vivo cell based assay was used to measure transcriptional activation by the EcR receptor plasmid in the presence of the chemical ligands as described above. S2 Drosophila cells (ATCC CRL-1963) (commonly known as cells from the fruit fly) were transiently transfected with luciferase reporter (pCGS154) and receptor expression plasmid (MMV) using the calcium phosphate precipitation procedure (Di Nocera and David (1983) PNAS 80, 7095-7098). S2 cells were plated in 96 well format at a density of 2×10^5 in 166.6 μl of Schneider's Drosophila media supplemented with antibiotics and 10% heat inactivated fetal bovine serum (GIBO-BRL). […]

T1 sequence (P49883 112-535, added parts left off): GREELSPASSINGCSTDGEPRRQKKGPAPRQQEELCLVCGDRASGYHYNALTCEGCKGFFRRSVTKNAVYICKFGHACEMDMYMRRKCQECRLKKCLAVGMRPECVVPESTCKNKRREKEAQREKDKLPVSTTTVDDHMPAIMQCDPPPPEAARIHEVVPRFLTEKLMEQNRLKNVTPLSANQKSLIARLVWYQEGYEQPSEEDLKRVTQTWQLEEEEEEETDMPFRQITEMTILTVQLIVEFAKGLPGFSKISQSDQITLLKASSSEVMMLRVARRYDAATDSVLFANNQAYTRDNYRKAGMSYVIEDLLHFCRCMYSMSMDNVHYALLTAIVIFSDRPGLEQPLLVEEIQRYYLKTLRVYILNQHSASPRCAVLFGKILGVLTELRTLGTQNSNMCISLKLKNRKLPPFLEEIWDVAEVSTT
T1 sequence (P20153 whole entry partner, the tested form may be a part): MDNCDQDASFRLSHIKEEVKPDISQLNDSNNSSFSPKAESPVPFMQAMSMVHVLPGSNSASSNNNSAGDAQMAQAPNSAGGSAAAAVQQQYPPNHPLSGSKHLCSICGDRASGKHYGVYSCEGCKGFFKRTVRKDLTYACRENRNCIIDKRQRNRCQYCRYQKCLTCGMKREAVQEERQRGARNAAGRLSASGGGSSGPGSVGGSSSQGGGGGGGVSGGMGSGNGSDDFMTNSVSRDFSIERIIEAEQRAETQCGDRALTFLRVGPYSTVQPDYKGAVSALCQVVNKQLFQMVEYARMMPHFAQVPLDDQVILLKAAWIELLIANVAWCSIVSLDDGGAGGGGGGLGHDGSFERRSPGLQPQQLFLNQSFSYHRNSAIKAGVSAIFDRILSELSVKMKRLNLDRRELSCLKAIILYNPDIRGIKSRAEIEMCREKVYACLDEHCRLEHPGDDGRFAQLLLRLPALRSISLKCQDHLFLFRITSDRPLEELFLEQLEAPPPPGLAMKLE

Structure (SMILES) | Gene switch activity fold induction [fold induction]
Cc1cccc(/C(C#N)=C(\NC(=O)c2cccc(C)c2C)C(C)(C)C)c1 | 66
Cc1c(Cl)cccc1C(=O)N/C(=C(/C#N)c1ccccc1)C(C)(C)C | 191
Cc1cccc(C(=O)N/C(=C(/C#N)c2ccccc2)C(C)(C)C)c1C | 636
Cc1c(Br)cccc1C(=O)N/C(=C(/C#N)c1ccccc1)C(C)(C)C | 1112
Cc1cc(C)cc(/C(C#N)=C(\NC(=O)c2cccc(Cl)c2Cl)C(C)(C)C)c1 | 1145
CCc1c(OC)cccc1C(=O)N/C(=C(/C#N)c1ccccc1)C(C)(C)C | 239
COc1cccc(C(=O)N/C(=C(/C#N)c2ccccc2)C(C)(C)C)c1C | 913
Cc1cc(C)cc(/C(C#N)=C(\NC(=O)c2cccc(Cl)c2C)C(C)(C)C)c1 [drawing 453] | 225
Cc1cccc(/C(C#N)=C(\NC(=O)c2cccc(Br)c2C)C(C)(C)C)c1 [drawing 457] | 1012
Cc1cc(C)cc(/C(C#N)=C(\NC(=O)c2cccc(Br)c2C)C(C)(C)C)c1 [drawing 458] | 1121
CC(C)(C)/C(NC(=O)c1c(F)cccc1F)=C(\C#N)c1ccccc1 [drawing 459] | 29
Cc1cc(C)cc(/C(C#N)=C(\NC(=O)c2cccc(C)c2C)C(C)(C)C)c1 [drawing 460] | 893
COc1cccc(C(=O)N/C(=C(/C#N)c2cc(C)cc(C)c2)C(C)(C)C)c1C [drawing 462] | 314
COc1cccc(C(=O)N/C(=C(/C#N)c2cccc(C)c2)C(C)(C)C)c1C [drawing 463] | 364
CCc1ccc(C(=O)N/C(=C(/C#N)c2ccccc2)C(C)(C)C)cc1 [drawing 464] | 394
